Values joined by “and” are separate entries in the source; they are usually repeats but may differ in a detail not shown here. Identical values can stand only once.
How the values were obtained:
[1] = type: in vivo; conditions: mice treated with Paclitaxel and Compound (1); FIG. 2
Method: The in vivo anti-cancer enhancing effect of novel compounds was assessed in tumor bearing mice using the tumor growth inhibition assay. Tumor cells were implanted by injection of a tumor cell suspension subcutaneously in the flank of a mouse. […] Animal then begun a multiple injection schedule where the compound and Paclitaxel were given by IV route of administration. Tumors were measured two times a week. During the course of this assay, animals were monitored daily for signs of toxicity including body weight loss.

[2] = system: MDA-435 human breast tumor; assay: In vivo tumor growth inhibition assay, compound plus Paclitaxel given IV to tumor-bearing mice; set-up: species or system CD-1 nu/nu mice; conditions: for % Tumor Growth: vehicle = 100
Method: A supplemented media was prepared from 50% DMEM/Dulbecco Modified Eagle Medium (High Glucose), 50% RPMI 1640, 10% FBS/Fetal Bovine Serum (Hybridoma Tested; Sterile Filtered), 1% L-Glutamine, 1% Penicillin-Streptomycin, 1% MEM Sodium Pyruvate and 1% MEM Non-Essential Amino Acids. FBS was obtained from Sigma Chemical Co. and other ingredients were obtained from Invitrogen Life Technologies, USA). The supplemental media was warmed to 37° C. and 50 ml of media was added to a 175 cm^2 tissue culture flask.
The cells used in the assay were MDA-435 Human Breast Carcinoma from the American Type Culture Collection. 1 vial of MDA-435 cells from the liquid nitrogen frozen cell stock was removed. The frozen vial of cells was immediately placed into a 37° C. water bath and gently swirled until thawed. The freeze-vial was wiped with 70% ethanol and cells were immediately pipetted into the 175 cm^2 tissue culture flask containing supplemented media. The cells were incubated overnight and the media was removed and replaced with fresh supplemented media the next day. The flask was incubated until flask became about 90% confluent. This took anywhere from 5-7 days.
The flask was washed with 10 ml of sterile room temperature phosphate buffered saline (PBS). The cells were trypsinized by adding 5 ml of warmed Trypsin-EDTA (Invitrogen) to the flask of cells. […] An equal volume of supplemented media (5 ml) was added to the flask. All the cells were collected into 50 ml tube, and centrifuged at 1000 RPM for 5 minutes at 20° C. The supernatant was aspirated and the cell pellet was resuspended in 10 ml of supplemented media and the cells were counted. 1-3 million cells/flask were seeded into 5-7 tissue culture flasks (175 cm^2). Each flask contained 50 ml of supplemented media. The flasks were incubated until about 90% confluent. The passaging of the cells was repeated until enough cells have been grown for tumor implantation.
The above procedure for trypsinizing and centrifuging the cells were followed. The supernatant was aspirated and the cell pellet was resuspended in 10 ml of sterile PBS and the cells were counted. The cells were centrifuged and then resuspended with appropriate volume of sterile PBS for injection of correct number of cells needed for tumor implantation. In the case of MDA-435, 100 million cells were suspended with 2.0 ml of sterile PBS to a final concentration of 50 million cells/ml in order to inject 5 million cells in 0.1 ml/mouse.
Mice (CD-1 nu/nu) were obtained from Charles River Laboratories: nomenclature: Crl:CD-1-nuBR, Age: 6-8 weeks. The mice were allowed to acclimate for 1 week prior to their being used in an experimental procedure.
Implantation of the MDA-435 tumor cell suspension took place into the corpus adiposum of the female CD-1 nu/nu mouse. […] Tumor cells were implanted subcutaneously into the fat body located in the right quadrant of the abdomen at the juncture of the os coxae (pelvic bone) and the os femoris (femur). 5 million MDA-435 cells in 0.1 ml of sterile PBS were injected using 27 G (½ inch) needle. MDA-435 tumors developed 2-3 weeks after implantation.
Compound stock solutions were prepared by dissolving the compound in cell-culture-grade DMSO (dimethyl sulfoxide) at the desired concentration. This stock solution in DMSO was sonicated in an ultrasonic water bath until all the powder dissolved.

## CN(NC(=O)CC(=O)NN(C)C(=S)c1ccccc1)C(=S)c1ccccc1 [Compound (1), N-Malonyl-bis[N′-methyl-N′-(thiobenzoyl)hydrazide]]
[1]
  Weight loss over the treatment period: little if any weight loss
[2]; Example 12, FIG. 1: Compound (1) 25 or 50 mg/kg + Paclitaxel 5 mg/kg, IV, 3 times a week for 3 weeks
  Enhancement of anti-tumor activity of Paclitaxel: significantly enhanced anti-tumor activity of Paclitaxel
[2]; Example 13, Day 23, Groups 4-5: compound 80 mg/kg alone, IV, 3 times a week for 3 weeks
  % Tumor Growth: 90%
[2]; Example 13, Day 23, Groups 6 and 8: compound 80 mg/kg + Paclitaxel 2 mg/kg, IV, 3 times a week for 3 weeks
  % Tumor Growth: 64%
[2]; Example 13, Day 23, Groups 7 and 9: compound 80 mg/kg + Paclitaxel 5 mg/kg, IV, 3 times a week for 3 weeks
  % Tumor Growth: 35%
[2]; Example 13, Groups 4-5: compound 80 mg/kg alone, IV, 3 times a week for 3 weeks
  Average Tumor Volume (mm^3) on Day 23: 270.0 mm^3
[2]; Example 13, Groups 6 and 8: compound 80 mg/kg + Paclitaxel 2 mg/kg, IV, 3 times a week for 3 weeks
  Average Tumor Volume (mm^3) on Day 23: 193.3 mm^3
[2]; Example 13, Groups 7 and 9: compound 80 mg/kg + Paclitaxel 5 mg/kg, IV, 3 times a week for 3 weeks
  Average Tumor Volume (mm^3) on Day 23: 106.2 mm^3
[2]; Example 13: compound 80 mg/kg + Paclitaxel at both 2 mg/kg and 5 mg/kg, IV, 3 times a week for 3 weeks
  Enhancement of anti-tumor activity of Paclitaxel: significantly enhanced anti-tumor activity of Paclitaxel
[2]; Example 14, Day 48, Group 3: Compound (1) 50 mg/kg alone, IV, 3 times a week for 3 weeks
  Average Tumor Volume [mm^3]: 754.9 mm^3
[2]; Example 14, Day 48, Group 4: Compound (1) 25 mg/kg + Paclitaxel 10 mg/kg, IV, 3 times a week for 3 weeks
  Average Tumor Volume [mm^3]: 0.59 mm^3
[2]; Example 14, Group 3: Compound (1) 50 mg/kg alone, IV, 3 times a week for 3 weeks
  % Tumor Growth Inhibition on Day 48: 0%
[2]; after 24 days of treatment, Paclitaxel 5 mg/kg + Compound (1) 25 mg/kg versus Paclitaxel 5 mg/kg only or Compound (1) 50 mg/kg only, FIG. 1
  Tumor volume, fold less than with Paclitaxel alone or Compound (1) alone: about five

## CC(=O)O[C@H]1C(=O)[C@@]2(C)[C@H]([C@H](OC(=O)c3ccccc3)[C@]3(O)C[C@H](OC(=O)[C@H](O)[C@@H](NC(=O)c4ccccc4)c4ccccc4)C(C)=C1C3(C)C)[C@]1(OC(C)=O)CO[C@@H]1C[C@@H]2O [Paclitaxel]
[2]; Example 13, Day 23, Group 2: Paclitaxel 2 mg/kg alone, IV, 3 times a week for 3 weeks
  % Tumor Growth: 86%
[2]; Example 13, Day 23, Group 3: Paclitaxel 5 mg/kg alone, IV, 3 times a week for 3 weeks
  % Tumor Growth: 55%
[2]; Example 13, Group 2: Paclitaxel 2 mg/kg alone, IV, 3 times a week for 3 weeks
  Average Tumor Volume (mm^3) on Day 23: 259.8 mm^3
[2]; Example 13, Group 3: Paclitaxel 5 mg/kg alone, IV, 3 times a week for 3 weeks
  Average Tumor Volume (mm^3) on Day 23: 164.8 mm^3
[2]; Example 14, Day 48, Group 2: Paclitaxel 10 mg/kg alone, IV, 3 times a week for 3 weeks
  Average Tumor Volume [mm^3]: 105 mm^3 and 105.4 mm^3
[2]; Example 14, Group 2: Paclitaxel 10 mg/kg alone, IV, 3 times a week for 3 weeks
  % Tumor Growth Inhibition on Day 48: 86%
[2]; Example 14: Paclitaxel 10 mg/kg alone, IV, 3 times a week for 3 weeks
  Anti-tumor activity: significant anti-tumor activity was observed
[2]; Example 15, Group 2: Paclitaxel 5 mg/kg alone, IV, 3 times a week for 3 weeks
  Average % Tumor Growth Inhibition on Day 27: 19%
